Data as given in paper PMC12666538.

Assays:
[1] = CCClick: formaldehyde (10 mM) bridges the two exocyclic methylene carbons of a Fischer base dimer (Knoevenagel dehydration cyclization, two C-C bonds), then hemin (1 mM)/air oxidative dehydrogenation to cyclic trimethine cyanine; details: the molecule shown is the open-chain precursor, DMF, 37.0 °C, 12.0 h
[2] = CCClick: 37% aq formaldehyde (5 mM, 5 eq) bridges the two exocyclic methylene carbons of a Fischer base dimer (two C-C bonds), then hemin (1 eq)/air oxidative dehydrogenation, one pot; Al2O3 column; details: the molecule shown is the open-chain precursor, DMF, 1.0 mM, 37.0 °C, 12.0 h

C=C1N(CCCCCCN2C(=C)C(C)(C)c3c2ccc2ccccc32)c2ccc3ccccc3c2C1(C)C [FB1 -> CY-1] showed a ring closure, conversion by HPLC ([1]; 13-membered ring) of 90% and a ring closure, isolated yield ([2]; 13-membered ring) of 62%.

In the case of C=C1N(CCCCCCN2C(=C)C(C)(C)c3c2ccc2ccccc32)c2ccc(OCCCCCC[P+](c3ccccc3)(c3ccccc3)c3ccccc3)cc2C1(C)C.[I-] [FB2 -> CY-2], the ring closure, conversion by HPLC ([1]; 13-membered ring) was 90% and the ring closure, isolated yield ([2]; 13-membered ring) was 57%.

For C=C1N(CCCCCCN2C(=C)C(C)(C)c3c2ccc2ccccc32)c2ccccc2C1(C)C [FB3 -> CY-3], the ring closure, conversion by HPLC ([1]; 13-membered ring) was 48% and the ring closure, isolated yield ([2]; 13-membered ring) was 35%.

For C=C1N(CCCCCCN2C(=C)C(C)(C)c3cc(OC)ccc32)c2ccc(OC)cc2C1(C)C [FB4 -> CY-4], the ring closure, conversion by HPLC ([1]; 13-membered ring) was 85% and the ring closure, isolated yield ([2]; 13-membered ring) was 40%.

C=C1N(CCCCCCN2C(=C)C(C)(C)c3ccccc32)c2ccccc2C1(C)C [FB5 -> CY-5] gave a ring closure, conversion by HPLC ([1]; 13-membered ring) of 31% and a ring closure, isolated yield ([2]; 13-membered ring) of 26%.

C=C1N(CCCCCCCCCCCCN2C(=C)C(C)(C)c3ccccc32)c2ccccc2C1(C)C [FB6 -> CY-6] showed a ring closure, conversion by HPLC ([1]; 19-membered ring) of 31% and a ring closure, isolated yield ([2]; 19-membered ring) of 29%.

C=C1N(CCCCCCCCCCCCCCCCCCN2C(=C)C(C)(C)c3ccccc32)c2ccccc2C1(C)C [FB7 -> CY-7] gave a ring closure, conversion by HPLC ([1]; 25-membered ring) of 24% and a ring closure, isolated yield ([2]; 25-membered ring) of 22%.

With C=C1N(CCOCCOCCN2C(=C)C(C)(C)c3c2ccc2ccccc32)c2ccc3ccccc3c2C1(C)C [FB8 -> CY-8] the ring closure, conversion by HPLC ([1]; 15-membered ring) was 34% and the ring closure, isolated yield ([2]; 15-membered ring) was 16%.

C=C1N(CCCCCCCCCCCCN2C(=C)C(C)(C)c3c2ccc2ccccc32)c2ccc3ccccc3c2C1(C)C [FB9 -> CY-9] gave a ring closure, conversion by HPLC ([1]; 19-membered ring) of 77% and a ring closure, isolated yield ([2]; 19-membered ring) of 44%.
